Experimental data published in publication PMC11940309, “Endocrine-Disrupting Activities of Flavones on Steroid Receptors: Structural Requirements and Synthesis of Novel Flavone with Improved Estrogenic Activity” (Biomedicines, 2025).
“And” between values parts separate entries of the source, which are not always exact repeats. Identical values can stand only once. Like-named read-outs stand apart in the source and are kept apart here.

Experiments:
[1] = tested on: estrogen receptor (ER); assay: ER-mediated luciferase reporter induction in T47D KBluc cells; type: cell-based, human; conditions: for % ER Induction: relative to 1nM estradiol
Method: Experiments testing the effect of flavonoids on estrogen receptor-mediated transcription employed T47D KBluc cells. These cells were maintained in RPMI medium with 10% FBS, penicillin (100 U/mL), and streptomycin (100 μg/mL). For reporter gene experiments, cells were detached as above and replated at 50% confluency in phenol red-free RPMI media with 10% charcoal-stripped FBS and antibiotics (day one). All subsequent steps used phenol red-free medium and trypsin. On day three, the medium was replaced with fresh medium. On day five, cells were washed with PBSE, detached, resuspended, diluted, and replated in the phenol red-free RPMI with charcoal-stripped serum (50,000 cells per well as above).
(§1) For all cell lines, cell harvesting and the luminescence assay for alkaline phosphatase and/or luciferase were performed as previously described in detail. Each condition was performed in quadruplicate. […] Percent inhibition is 100 minus the percent induction.

[2] = molecular target: T1, human AR (Homo sapiens, UniProt P10275); assay: AR-mediated induction of PSA-luciferase reporter by R1881 in HeLa13 cells; type: cell-based; conditions: for inhibition at 1 µM / inhibition at 4 µM: read-out: % Inhibition of AR-Mediated Gene Induction
T1 construct: expressed in transfected cells; host or cells: HeLa13 (HeLa 13)
T1 sequence (P10275 1-920): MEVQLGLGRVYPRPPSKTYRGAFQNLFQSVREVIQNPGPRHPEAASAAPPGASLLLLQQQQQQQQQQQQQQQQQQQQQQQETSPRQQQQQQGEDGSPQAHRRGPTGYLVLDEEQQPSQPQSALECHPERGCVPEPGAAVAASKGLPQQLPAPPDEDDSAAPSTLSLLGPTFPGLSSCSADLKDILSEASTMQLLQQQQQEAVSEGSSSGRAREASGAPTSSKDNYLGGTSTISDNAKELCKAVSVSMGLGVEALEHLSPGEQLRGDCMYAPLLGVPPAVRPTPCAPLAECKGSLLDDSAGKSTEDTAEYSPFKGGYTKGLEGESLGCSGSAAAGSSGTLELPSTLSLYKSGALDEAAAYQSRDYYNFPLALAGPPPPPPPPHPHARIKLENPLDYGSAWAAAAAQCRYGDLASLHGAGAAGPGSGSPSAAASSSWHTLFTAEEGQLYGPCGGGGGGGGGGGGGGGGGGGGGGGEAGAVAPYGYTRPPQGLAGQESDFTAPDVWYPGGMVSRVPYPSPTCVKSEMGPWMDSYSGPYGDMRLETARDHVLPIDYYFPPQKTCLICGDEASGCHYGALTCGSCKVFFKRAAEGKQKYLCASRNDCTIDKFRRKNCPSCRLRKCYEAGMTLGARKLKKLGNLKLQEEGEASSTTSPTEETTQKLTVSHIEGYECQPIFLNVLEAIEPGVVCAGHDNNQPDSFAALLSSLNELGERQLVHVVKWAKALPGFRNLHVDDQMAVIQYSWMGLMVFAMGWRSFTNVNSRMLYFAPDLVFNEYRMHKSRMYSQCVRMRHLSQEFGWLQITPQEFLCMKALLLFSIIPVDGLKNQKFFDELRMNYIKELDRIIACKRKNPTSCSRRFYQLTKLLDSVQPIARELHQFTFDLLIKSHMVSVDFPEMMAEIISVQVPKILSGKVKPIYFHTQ
Source text: (§2) The engineered T47D breast cancer cell lines employed for the assessment of flavonoid activity on glucocorticoid receptor (GR) and progesterone receptor (PR) signaling permitted the facile quantitation transcription of both an endogenous gene and a stably integrated reporter gene. […] The T47D K5pLuc cell line responds to progestins via induction of a stably integrated cytokeratin 5-luciferase reporter gene. […] For assessment of the effect of the test compounds on androgen receptor (AR) signaling, we used the HeLa13 cell line engineered to stably express human AR and a PSA-luciferase reporter gene containing a 4× multimerized PSA upstream enhancer ARE1 linked to the E4 TATA box and luciferase gene.
Experiments testing the effect of flavonoid on androgen receptor-mediated transcription employed HeLa 13 cells maintained in MEM medium supplemented with 10% FBS, 0.5 mg/mL G418, 0.05 mg/mL Hygromycin B, […], and streptomycin (100 μg/mL). For reporter gene experiments, cells were replated at a 1:5 dilution in MEM medium with 5% charcoal-stripped FBS and the antibiotics mentioned above. The medium was changed the next day. After 48 h, the cells were washed with PBSE, detached with phenol red-free trypsin, pelleted, resuspended and plated in 96 well plates as above. Hormone and flavonoid treatments were performed as described above with the HeLa 13 medium and charcoal-stripped FBS. When treated with hormone, the synthetic androgen, R1881, was used at 1.0 nM. Hormone treatment was for 20 h at which time cells were harvested for assay of luciferase.
as §1

[3] = molecular target: T2, progesterone receptor (PR) (Homo sapiens, UniProt P06401); assay: PR-mediated induction of transcription by R5020 in T47D K5pLuc cells (luciferase reporter and endogenous alkaline phosphatase); type: cell-based; conditions: T47D, R5020 1.0 nM
T2 sequence (P06401 679-933 limits assumed): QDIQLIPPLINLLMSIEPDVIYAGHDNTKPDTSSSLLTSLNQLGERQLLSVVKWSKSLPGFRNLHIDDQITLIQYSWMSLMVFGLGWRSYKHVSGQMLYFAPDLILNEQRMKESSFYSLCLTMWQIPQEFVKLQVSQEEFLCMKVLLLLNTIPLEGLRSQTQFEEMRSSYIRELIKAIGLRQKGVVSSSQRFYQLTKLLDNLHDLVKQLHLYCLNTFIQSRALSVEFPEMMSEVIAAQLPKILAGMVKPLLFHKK
Source text: as §2
Experiments testing the effect of flavonoids on progesterone receptor-mediated transcription employed T47D K5pluc cells. The protocol was the same as that for T47D (A1-2) cells except the medium was Dulbecco’s Modified Eagle’s Medium supplemented with 10% FBS, insulin (10 nM), puromycin 200 ng/mL, nonessential amino acids, penicillin (100 U/mL), and streptomycin (100 μg/mL). When treated with hormone, the synthetic progestin, R5020, was used at 1.0 nM. Hormone treatment was for 20 h at which time cells were harvested for assay of alkaline phosphatase and luciferase.
as §1

[4] = molecular target: T3, glucocorticoid receptor (GR) (Rattus norvegicus, UniProt P06536); assay: GR-mediated induction of transcription by dexamethasone in T47D (A1-2) cells (luciferase reporter and endogenous alkaline phosphatase); type: cell-based, human; conditions: T47D, dexamethasone 1.0 nM, read-out: % Inhibition of GR Induction
T3 construct: host or cells: T47D (A1-2)
T3 sequence (P06536 1-795): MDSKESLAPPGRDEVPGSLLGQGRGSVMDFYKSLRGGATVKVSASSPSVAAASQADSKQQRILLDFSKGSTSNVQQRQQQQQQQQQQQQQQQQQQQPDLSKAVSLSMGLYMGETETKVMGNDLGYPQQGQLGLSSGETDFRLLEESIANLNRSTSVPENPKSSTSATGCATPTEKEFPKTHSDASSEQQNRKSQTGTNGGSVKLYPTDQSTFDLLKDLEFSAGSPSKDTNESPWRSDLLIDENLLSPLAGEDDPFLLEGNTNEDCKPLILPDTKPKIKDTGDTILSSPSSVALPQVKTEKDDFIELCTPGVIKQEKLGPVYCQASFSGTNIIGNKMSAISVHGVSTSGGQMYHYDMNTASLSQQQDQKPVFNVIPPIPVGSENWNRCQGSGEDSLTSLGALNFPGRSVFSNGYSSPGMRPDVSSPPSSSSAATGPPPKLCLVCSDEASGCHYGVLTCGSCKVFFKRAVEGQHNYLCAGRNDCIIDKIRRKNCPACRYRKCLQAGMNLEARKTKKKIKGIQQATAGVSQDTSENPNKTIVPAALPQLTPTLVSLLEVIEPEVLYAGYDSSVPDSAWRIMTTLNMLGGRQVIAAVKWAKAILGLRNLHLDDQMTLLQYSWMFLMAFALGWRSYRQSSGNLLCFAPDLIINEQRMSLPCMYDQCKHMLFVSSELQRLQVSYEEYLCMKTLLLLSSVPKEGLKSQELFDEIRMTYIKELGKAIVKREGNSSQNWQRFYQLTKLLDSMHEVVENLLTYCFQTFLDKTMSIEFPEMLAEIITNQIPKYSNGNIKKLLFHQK
Source text: as §2
For assessment of the effect of flavones on glucocorticoid receptors, T47D (A1-2) cells were maintained in Minimal Essential Medium, 10% Fetal Bovine Serum (FBS), 0.2 mg/mL G418, penicillin (100 U/mL), and streptomycin (100 μg/mL). For experiments, medium was removed, and cultures rinsed with Phosphate-Buffered Saline (PBS) + 1.0 mM EDTA (PBSE), detached with trypsin, pelleted, and resuspended in medium to a concentration of 500,000 cells/mL. Aliquots of cell suspension, 100 microliters/well, were transferred into a 96-well, white, flat-bottomed plate and allowed to attach for 24 h. The following day, each well was treated with a 50 microliter aliquot of a test compound diluted in medium. Controls received medium containing DMSO diluted in the same way. For hormone treatment, dexamethasone was diluted in medium and added as 50 microliter aliquots so that the final volume in each well was 200 microliters. The final concentration of dexamethasone was 1.0 nM. Controls received medium without hormone. Hormone treatment was for 20 h at which time cells were harvested for assay of alkaline phosphatase and luciferase.
as §1

inhibition at 1 µM ([2]; 1 µM, R1881 1.0 nM)	inhibition at 4 µM ([2]; 4 µM, R1881 1.0 nM)	Structure (SMILES)	% ER Induction ([1]; 1 µM)	% ER Induction ([1]; 4 µM)	further results
3%	27%	O=c1c(O)c(-c2ccc(O)cc2)oc2ccccc12 [3,4′-dihydroxyflavone]	13%	125%	
		Cc1c(-c2ccc(O)cc2)oc2ccc(O)cc2c1=O [compound 8, 3-methyl 6,4′-dihydroxyflavone]			increase of EC50 relative to 6,4′-dihydroxyflavone [1]: ten-fold or more; reporter gene activity compared with an optimal dose of estradiol ([1]; 1.0 micromolar): super-inducer
-17%	41%	COc1ccc(-c2oc3ccc(OC)cc3c(=O)c2O)cc1 [3-hydroxy, 6,4′-dimethoxyflavone]	2%	3%	
		O=c1c(F)c(-c2ccc(O)cc2)oc2ccc(O)cc12 [compound 14, 3-fluoro, 6,4′-dihydroxyflavone]			EC50 compared to that of genistein [1]: comparable; EC50 ([1]; read-out: EC50, estrogen agonist): ~30 nM and 30 to 100 nM
-8%	22%	O=C1CC(c2ccccc2)Oc2ccc(O)cc21 (stereo not shown) [6-hydroxyflavanone]	15%	111%	
		O=c1c(O)c(-c2ccc(O)c(O)c2)oc2cc(O)cc(O)c12 [3,5,7,3′,4′-pentahydroxyflavone]	3%	12%	inhibition at 4 µM ([3]; AP (alkaline phosphatase)): 52%; inhibition at 4 µM ([3]; LUC (luciferase)): 47%; inhibition at 8 µM ([3]; AP (alkaline phosphatase)): 79%; inhibition at 8 µM ([3]; LUC (luciferase)): 78%
-4%	34%	COc1cccc2oc(-c3ccc(O)cc3)cc(=O)c12 [5-methoxy,4′-hydroxyflavone]	−2%	10%	
		O=c1cc(-c2ccccc2)oc2cccc(O)c12 [5-hydroxyflavone]	0%	4%	inhibition at 4 µM ([4]; AP (alkaline phosphatase)): 38%; inhibition at 4 µM ([4]; LUC (luciferase)): -9%; inhibition at 8 µM ([4]; AP (alkaline phosphatase)): 12%; inhibition at 8 µM ([4]; LUC (luciferase)): -30%; inhibition at 4 µM ([3]; AP (alkaline phosphatase)): 26%; inhibition at 4 µM ([3]; LUC (luciferase)): -23%; inhibition at 8 µM ([3]; AP (alkaline phosphatase)): 61%; inhibition at 8 µM ([3]; LUC (luciferase)): 45%
		COc1ccc(-c2cc(=O)c3c(OC)cccc3o2)cc1 [5,4′-methoxyflavone]	1%	31%	% Inhibition of AR-Mediated Gene Induction ([2]; 1 µM, R1881 1.0 nM): 4%; % Inhibition of AR-Mediated Gene Induction ([2]; 4 µM, R1881 1.0 nM): 53%
35%	52%	O=c1c(O)c(-c2ccccc2)oc2ccc(O)cc12 [3,6-dihydroxyflavone]	55%	94%	
		O=C1CC(c2ccc(O)cc2)Oc2ccccc21 (stereo not shown) [4′-hydroxyflavanone]	12%	109%	inhibition at 1 µM [2]: -8%; inhibition at 4 µM [2]: 0%
27%	49%	COc1ccc2oc(-c3ccc(O)cc3)cc(=O)c2c1 [6-methoxy,4′-hydroxyflavone]	129%	167%	
		O=c1cc(-c2ccc(O)cc2)oc2cc(O)cc(O)c12 [5,7,4′-trihydroxyflavone]			inhibition at 4 µM ([4]; AP (alkaline phosphatase)): -19%; inhibition at 4 µM ([4]; LUC (luciferase)): 6%; inhibition at 8 µM ([4]; AP (alkaline phosphatase)): 49%; inhibition at 8 µM ([4]; LUC (luciferase)): 35%
-6%	39%	O=c1c(O)c(-c2ccc(O)cc2)oc2cc(O)ccc12 [3,7,4′-trihydroxyflavone]	86%	114%	
		C[C@]12CC[C@@H]3c4ccc(O)cc4CC[C@H]3[C@@H]1CC[C@@H]2O [17β-estradiol]			potency relative to the 6,4′-dihydroxyflavones ([1]; in the assays used here): over 1000 fold
